Results from US5650550A, “Mutant mice having a deficit of functional estrogen receptors” (The United States of America as represented by the …, priority 1995, dated 1997).

Tested on: adult female mice (uterus, vagina)
Experiment: Estrogen responsiveness bioassay in adult females (uterine wet weight, hyperemia, vaginal epithelial cytology)
Type: in vivo, mouse
Details: for vaginal histology: after estradiol treatment; for increase in uterine wet weight: treated for three days, compared to untreated control

For C[C@]12CC[C@@H]3c4ccc(O)cc4CC[C@H]3[C@@H]1CC[C@@H]2O [estradiol], the vaginal histology (ER disrupted animals) was “unaltered”, the “uterine water imbibition or uterine hyperemia” value (ER disrupted animals, treatment for 4-6 hours) was “no uterine water imbibition or uterine hyperemia” and the “increase in uterine wet weight” value (heterozygous animals) was 3-4 fold. For the same molecule, the “increase in uterine weight or hyperemia” value (homozygous ER disrupted animals, three day bioassay) was “did not respond”, the uterine hyperemia (wild type and heterozygotes, three day bioassay) was “became hyperemic” and the vaginal histology (wild type and heterozygous animals) was “increase in number of cornified epithelial cells”. The “increase in uterine wet weight” value (wild type animals) was 3-4 fold.
